In patent US20130158111A1, “Compositions and Methods for Depleting Mutant p53” (Georgetown University, priority 2011, published 2013):

How the values were obtained:
[1] = target: T1, mutant p53 in MDA-MB-231 breast cancer cells (Homo sapiens, UniProt P04637, R280K); assay: Immunoblot of mutant p53 in MDA-MB-231 cells treated with ITCs; assay type: cell-based; conditions: for depletion of mutant p53 (FIG. 3B-E): H596 20 μM / MDA-MB-231 10 μM ITCs
T1 construct: host or cells: MDA-MB-231
Description: (§1) Human H596, A549, HCT116, MDA-MB-231, MDA-MB-468, MCF-7, DU145, MCF-10A, SW480, and SCC-4 cells were obtained from ATCC (Manassas, Va.). H1299-175H cells were kindly provided by Dr. Maria Laura Avantaggiati (Georgetown University). Cells were maintained in DMEM or RPMI-1640 medium supplemented with 10% FBS (Hyclone). […] 2,2-Diphenylethyl ITC, 4-phenoxybenzyl ITC, 4-methoxybenzyl ITC, 4-chlorobenzyl ITC, Dα-methylbenzyl ITC, trityl ITC, and 3-phenylpropyl ITC were purchased from Trans World Chemicals (Rockville, Md.). Erucin and 4-phenylbutyl ITC were from LKT Laboratories, Inc. (St. Paul, Minn.). […] The p53 DO-1 and β-actin antibodies were purchased from Santa Cruz Biotechnology (Santa Cruz, Calif.), horseradish peroxidase-labeled goat antimouse secondary antibodies were purchased from GE-Healthcare (Pittsburgh, Pa.), and Bio-Rad Protein Assay was from Bio-Rad (Hercules, Calif.).
(§2) Whole cell lysates were prepared in lysis buffer (20 mM HEPES, pH 7.4, 2 mM EGTA, 50 mM β-glycerol phosphate, 1% Triton X-100, 10% glycerol, 1 mM DTT, 1 mM PMSF, […], 1 mM Na3-VO4, and 5 mM NaF). For immunoblot analysis, equal amounts of protein were resolved on 4-12% NuPAGE BisTris gels (Invitrogen) and transferred to PVDF membranes (Millipore). The membranes were blocked with 5% milk in TBST and were then probed with p53 (DO-1) or β-actin antibody. Proteins were detected using enhanced chemiluminescence (ECL) reagents (GE Healthcare).

[2] = system: MDA-MB-231 breast cancer cells; assay: FITC-annexin V / propidium iodide apoptosis assay; assay type: cell-based, Human; conditions: MDA-MB-231, 10 μM, 24 h; for induction of apoptosis vs DMSO: p<0.05
Protocol: Then, 100 μL of each sample was added to a 5 mm tube, and the annexin V apoptosis kit protocol was followed. Samples were immediately analyzed with flow cytometry.

[3] = target: T2, mutant (G245C) p53 DNA-binding domain (Homo sapiens, UniProt P04637, G245C); assay: Monochlorobimane fluorometric cysteine binding assay; conditions: 100 μM ITC, 1 h, 32 C; compared with trityl ITC, cyclohexylmethyl ITC, SFN, AITC, and PITC (p<0.05)
T2 construct: made in house; host or cells: Escherichia coli BL21
Protocol: BL21 […] Escherichia coli were transformed with pET29b wild-type or mutant (G245C) p53 DNA binding domain (DBD) plasmids. The E. coli were then cultured in LB media supplemented with 100 μM ZnCl2 and 25 μg/mL kanamycin at 37° C. until OD600=0.6-0.8. Protein expression was induced by 0.1 mM isopropyl β-D-1-thiogalactopyranoside for 16 h at 37 gC for wild-type and 16 gC for mutant p53. Bacterial pellets were then harvested by centrifugation at 5000×g, 10 min, 4 gC, and lysed via sonication in 50 mM Tris, 50 mM KCl, 5 mM dithiothreitol, 1 mM PMSF, pH 7 buffer. The soluble fraction was passed through a Capto S cation exchange column (GE Healthcare) and eluted with 50 mM Tris, 200 mM KCl, 5 mM DTT, pH 7. Eluted protein was dialyzed overnight against a non-salt dialysis buffer (50 mM Tris, 5 mM DTT, pH 7) and loaded onto a HiTrap Heparin HP column (GE Healthcare). The p53 DBD was purified via a AKTApurifier-10 protein liquid chromatography system (GE Healthcare) with an increasing KCl salt gradient, and purity was tested by SDSPAGE and Coomassie blue staining. Purified protein was dialyzed in PBS, and protein concentrations were determined prior to performing fluorescence experiments.
In a white 96-well plate, 100 μL of purified mutant (G245C) p53 DNA-binding domain protein in PBS was treated with DMSO, 100 μM ITCs in DMSO, or 500 μM iodoacetamide (positive binding control). An additional well containing 100 μL of PBS was used to determine background. Samples were incubated with compounds in the dark for 1 h at 32 gC, after which […] of 10 mM monochlorobimane was added (in the dark), and samples were further incubated in the dark at 32 gC for 30 min. Fluorescence readings were then obtained using a BIO-TEK Synergy HT plate reader (λex 380 nm; λem 485 nm).

[4] = target: T3, mutant p53 protein in H596 (G245C) non-small-cell lung cancer cells (Homo sapiens, UniProt P04637, G245C); assay: Immunoblot of mutant p53 protein in H596 cells; assay type: cell-based
T3 construct: host or cells: H596
Description: as §1, §2

S=C=NCC(c1ccccc1)c1ccccc1 [2,2-diphenylethyl ITC, 2,2-diphenylethyl isothiocyanate]
rank as depletor of mutant p53 among ITCs studied ([1]; FIG. 3B-E): most potent
depletion of mutant p53 (FIG. 3B-E) [1]: deplete mutant p53
induction of apoptosis vs DMSO [2]: greater induction of apoptosis
rank as inducer of apoptosis ([2]; p<0.05 compared with BITC): strongest inducer of apoptosis
binding affinity for mutant (G245C) p53 DBD (free thiols, relative fluorescence) [3]: greater binding affinities

S=C=NCCCc1ccccc1 [3-PPITC, 3-phenylpropyl ITC]
depletion of mutant p53 (FIG. 3B-E) [1]: deplete mutant p53
induction of apoptosis vs DMSO [2]: greater induction of apoptosis
binding affinity for mutant (G245C) p53 DBD (free thiols, relative fluorescence) [3]: greater binding affinities

S=C=NCCCCc1ccccc1 [4-PBITC, 4-phenylbutyl ITC]
depletion of mutant p53 (FIG. 3B-E) [1]: deplete mutant p53
induction of apoptosis vs DMSO [2]: greater induction of apoptosis

S=C=NCc1ccc(Cl)cc1 [4-chlorobenzyl ITC]
binding affinity for mutant (G245C) p53 DBD (free thiols, relative fluorescence) [3]: greater binding affinities

COc1ccc(CN=C=S)cc1 [4-methoxybenzyl ITC]
binding affinity for mutant (G245C) p53 DBD (free thiols, relative fluorescence) [3]: greater binding affinities

S=C=NCc1ccccc1 [BITC, benzyl isothiocyanate]
level of mutant p53 ([4]; H596, 10 μM, 2 h): significantly reduced
depletion of mutant p53 at equimolar concentrations ([4]; H596, 20 μM ITCs, 24 h, compared with DMSO control): approximately the same extent
depletion of mutant p53 (FIG. 3B-E) [1]: deplete mutant p53
depletion of mutant p53 at equimolar concentrations ([1]; MDA-MB-231, 10 μM ITCs, 24 h, compared with DMSO control): approximately the same extent
induction of apoptosis vs DMSO [2]: greater induction of apoptosis
binding affinity for mutant (G245C) p53 DBD (free thiols, relative fluorescence) [3]: greater binding affinities

CNCCc1ccccc1 [NMPEA, N-methylphenethylamine, reference compound]
mutant p53 protein level ([4]; H596, 15 μM, up to 24 h): failed to alter
mutant p53 protein level ([4]; H596, 60 μM for 2 h): failed to alter
